This is an account of results in patent publication US5198445A, “Composition and use of substituted 3-thio-2-propynenitriles as industrial antimicrobials” (The Dow Chemical Company, priority 1992, dated 1993).

One test concerns Proteus vulgaris (Pv). The test is described as follows: MIC in nutrient agar, Proteus vulgaris. The test is classed as cell-based, Proteus vulgaris ATCC 881. The protocol: (§1) The minimum inhibitory concentration (MIC) for the compounds listed in Table I is determined for 9 bacteria, using nutrient agar, and 7 yeast and fungi, using malt yeast agar. A one percent solution of the test compound is prepared in a mixture of acetone and water. Nutrient agar is prepared at pH 6.8, representing a neutral medium, and at pH 8.2, representing an alkaline medium. The nutrient agars are prepared by adding 23 g of nutrient agar to one-liter of deionized water. In addition, the alkaline medium is prepared by adjusting a 0.04M solution of N-[tris-(hydroxymethyl)methyl]-glycine buffered deionized water with concentrated sodium hydroxide to a pH of […]. Malt yeast agar is prepared by adding 3 g yeast extract and 45 g malt agar per liter of deionized water. The specific agar is dispensed in 30 ml aliquots into 25×200 mm test tubes, capped and autoclaved for 15 minutes at 115° C. The test tubes containing the agar are cooled in a water bath until the temperature of the agar is 48° C. Then, an appropriate amount of the one percent solution of the test compound is added (except in the controls where no compound is added) to the respective test tubes so that the final concentrations are 500, 250, 100, 50, 25, 10, 5, 2.5, 1.0 and zero parts per million of the test compound in the agar, thus having a known concentration of test compound dispersed therein. The contents of the test tubes are then transferred to respective petri plates. After drying for 24 hours, the petri plates containing nutrient agar are inoculated with bacteria and those containing malt yeast agar are inoculated with yeast and fungi.
(§2) The inoculation with bacteria is accomplished by using the following procedure. Twenty-four hour-cultures of each of the bacteria are prepared by incubating the respective bacteria in tubes containing nutrient broth for 24 hours at 30° C. in a shaker. Dilutions of each of the 24 hour-cultures are made so that nine separate suspensions (one for each of the nine test bacteria) are made, each containing 10^8 colony forming units (CFU) per ml of suspension of a particular bacteria. Aliquots of 0.3 ml of each of the bacterial suspensions are used to fill the individual wells of Steer's Replicator. For each microbial suspension, 0.3 ml was used to fill three wells (i.e., three wells of 0.3 ml each) so that for the nine different bacteria, 27 wells are filled. The Steer's Replicator is then used to inoculate both the neutral and alkaline pH nutrient agar petri plates.
(§3) The inoculated petri plates are incubated at 30° C. for 48 hours and then read to determine if the test compound which is incorporated into the agar prevented growth of the respective bacteria.
(§4) Table II lists the bacteria, yeast and fungi used in the MIC test described above along with their respective American Type Culture Collection (ATCC) identification numbers.
(§5) The following MIC and MEC antimicrobial tests, whose results are shown in Tables XIII-XVII, are performed using the same methods as described hereinabove.

Another test concerns Aspergillus niger (An). Description: MIC in malt yeast agar, Aspergillus niger. The test is classed as cell-based, Aspergillus niger ATCC 16404. The note with it: read-out: Minimum Inhibitory Concentration, An. The protocol: as §1
(§6) The inoculation with the yeast and fungi is accomplished as follows. Cultures of yeast and fungi are incubated for seven days on malt yeast agar at 30° C. These cultures are used to prepare suspensions by the following procedure. A suspension of each organism is prepared by adding 10 ml of sterile saline and 10 microliters of octylphenoxy polyethoxy ethanol (TRITON® X-100, a trademark of Rohm & Haas Company) to the agar slant of yeast or fungi. The sterile saline/octylphenoxy polyethoxy ethanol solution is then agitated with a sterile swab to suspend the microorganism grown on the slant. Each resulting suspension is diluted into sterile saline (1 part suspension: 9 parts sterile saline). Aliquots of these dilutions are placed in individual wells of Steer's Replicator and petri plates inoculated as previously described. The petri plates are incubated at 30° C. and read after 48 hours for yeast and 72 hours for fungi.
as §4, §5

Test [1] has as its system Aureobasidium pullulan (Ap). Description: MIC in malt yeast agar, Aureobasidium pullulan. The test is classed as cell-based, Aureobasidium pullulan ATCC 16622. The note with it: read-out: Minimum Inhibitory Concentration, Ap. The protocol: as §1, §6, §4, §5
A further test relates to Trichoderma viride (Tv). The test is described as follows: MIC in malt yeast agar, Trichoderma viride. It is filed as cell-based, Trichoderma viride ATCC 8678. The note with it: read-out: Minimum Inhibitory Concentration, Tv. The protocol:
as §1, §6, §4, §5

The test system of test [2] is mixture of the bacterial organisms listed in Table II. Description: Multiple Challenge Test in hand lotion formulation. It is filed as cell-based, bacteria listed in Table II. The following applies: 10 challenges. The protocol: (§7) Additionally, the ability of the compounds of Table I to serve as preservatives in a variety of formulated industrial, household, and commercial products is tested using a Multiple Challenge Test Protocol. In this test, the formulations include a styrene-butadiene latex, a tape joint, a hand lotion, and a shampoo. The styrene-butadiene latex test formulation used is Latex DL 238A, available from The Dow Chemical Company. The compositions of the tape joint, hand lotion and shampoo test formulations can be found in Tables V-VII.
(§8) The formulations are separated into 50 g aliquots and placed in sterile bottles. An appropriate amount of a fresh one percent stock solution of the test compound in acetone-water is added to achieve the desired final concentrations. A small portion of each of the test formulations is streaked onto Tryptic Soy Agar (TSA) petri plates using sterile cotton swabs to ensure that the formulations are sterile. If the formulation is sterile, then it is inoculated with 0.1 ml of a mixture of equal aliquots of the 24 hour cultures of each of the bacterial organisms listed in Table II. The test formulations are then incubated at 30° C. After 24 hours, each sample is streaked onto a TSA petri plate using a sterile swab. All plates are then incubated at 30° C. for 48 hours and then rated for microbial growth using the rating system listed in Table VIII. Samples with a rating of 3 or less are reinoculated as described in the procedure for the first inoculation. Samples with a rating of 4 or greater are not reinoculated but after another 24 hours are restreaked on TSA agar.
(§9) The normal interpretation of the results is that a concentration of the antimicrobial being tested is considered to be effective if no ratings greater than a 3 are observed throughout the 10 challenges. The Minimum Effective Concentration (MEC), which is used to compare the activity of the antimicrobial additives in the end-use formulations, is the minimum level that is effective under the conditions of the Multiple Challenge Test.

Test [3] concerns Pseudomonas aeruginosa (PRD-10). The test is described as follows: MIC in nutrient agar, Pseudomonas aeruginosa PRD-10. It is filed as cell-based, Pseudomonas aeruginosa ATCC 15442. The protocol:
as §1, §2, §3, §4, §5

Test [4] has as its system mixture of the bacterial organisms listed in Table II. Description: Multiple Challenge Test in styrene-butadiene latex. The following applies: Styrene-Butadiene Latex Formulation; 10 challenges. The test is classed as cell-based, bacteria listed in Table II. The protocol:
as §7, §8, §9

Test [5] shares this test system. The test is described as follows: Multiple Challenge Test in tape joint formulation. The test is classed as cell-based, bacteria listed in Table II. The note with it: 10 challenges. On the procedure: as §7, §8, §9
In test [6] the test system is Klebsiella pneumoniae (Kp). Description: MIC in nutrient agar, Klebsiella pneumoniae. It is filed as cell-based, Klebsiella pneumoniae ATCC 8308. The protocol: as §1, §2, §3, §4, §5
Where [7] appears, read: pH 6.8, read-out: Minimum Inhibitory Concentration, Pv.
Setting [8] is: pH 8.2, read-out: Minimum Inhibitory Concentration, Pv.
[9] abbreviates: Pseudomonas aeruginosa, pH 6.8; read-out: Minimum Inhibitory Concentration, PRD.
The mark [10] stands for this setting: Pseudomonas aeruginosa, pH 8.2; read-out: Minimum Inhibitory Concentration, PRD.
Where [11] appears, read: pH 6.8, read-out: Minimum Inhibitory Concentration, Kp.
Where [12] appears, read: pH 8.2, read-out: Minimum Inhibitory Concentration, Kp.

Converted amounts (≈) assume the structure as drawn. Read-outs that look alike come from different tables or passages of the source.

Consider `CCSC#CC#N` [B, 3-ethylthio-2-propynenitrile], for which the MIC is under 1 µg/mL with Proteus vulgaris (Pv) (setting [7]); 5 µg/mL (≈ 45 µM) with Proteus vulgaris (Pv) (setting [8]); 2.5 µg/mL (≈ 22.5 µM) in the test with Aspergillus niger (An) (malt yeast agar); under 1 µg/mL in test [1] (malt yeast agar); 10 µg/mL (≈ 90 µM) in the test with Trichoderma viride (Tv); 25 µg/mL (≈ 225 µM) in [3] (setting [9]). Moreover, the MIC came out at 25 µg/mL (≈ 225 µM) in test [3] (setting [10]), 5 µg/mL (≈ 45 µM) in test [6] (setting [11]) and 5 µg/mL (≈ 45 µM) in test [6] (setting [12]). Moreover, the MEC in test [2], in [4] and in [5] was 25 ppm each time.
For the compound `N#CC#CSC1CCCC1` [C, 3-cyclopentylthio-2-propynenitrile], the MIC in the test with Proteus vulgaris (Pv) (setting [7]) is under 10 µg/mL; with Proteus vulgaris (Pv) (setting [8]), under 10 µg/mL; with Aspergillus niger (An) (malt yeast agar), 2.5 µg/mL (≈ 16.5 µM); in test [1] (malt yeast agar) it was 2.5 µg/mL (≈ 16.5 µM); in the test on Trichoderma viride (Tv) (malt yeast agar), 2.5 µg/mL (≈ 16.5 µM); in [3] (setting [9]) it was 250 µg/mL (≈ 1650 µM). Also, the MIC was 250 µg/mL (≈ 1650 µM) in [3] (setting [10]), under 10 µg/mL in test [6] (setting [11]) and 25 µg/mL (≈ 165 µM) in test [6] (setting [12]). The MEC in test [2] turned out to be 250 ppm; in test [4], 100 ppm; in [5], 100 ppm.
As for `CSC#CC#N` [Compound A, 3-methylthio-2-propynenitrile], the MIC is under 1 µg/mL with Proteus vulgaris (Pv) (setting [7]); 2.5 µg/mL (≈ 25.7 µM) in the test on Proteus vulgaris (Pv) (setting [8]); 2.5 µg/mL (≈ 25.7 µM) in the test on Aspergillus niger (An) (malt yeast agar); 2.5 µg/mL (≈ 25.7 µM) in test [1] (malt yeast agar); 0.25 µg/mL (≈ 2.57 µM) in the test with Trichoderma viride (Tv) (malt yeast agar); 2.5 µg/mL (≈ 25.7 µM) in test [3] (setting [9]). Besides, the MIC in [3] (setting [10]) came out at 5 µg/mL (≈ 51.5 µM); in test [6] (setting [11]), 2.5 µg/mL (≈ 25.7 µM); in [6] (setting [12]), 10 µg/mL (≈ 103 µM). Further, the MEC in [2], in test [4] and in test [5] was 10 ppm each time. Moreover, the “Minimum Inhibitory Concentration, PRD” value in [3] (pH 8.2) amounted to 5 ppm.
As to `CSC=C(Cl)C#N` [Compound G, 2-chloro-3-(methylthio)-2-propenenitrile], the MIC worked out at 50 µg/mL (≈ 374 µM) in the test on Proteus vulgaris (Pv) (setting [7]); 5 µg/mL (≈ 37.4 µM) with Proteus vulgaris (Pv) (setting [8]); 50 µg/mL (≈ 374 µM) in the test with Aspergillus niger (An); 50 µg/mL (≈ 374 µM) in [1]; 100 µg/mL (≈ 748 µM) with Trichoderma viride (Tv); 50 µg/mL (≈ 374 µM) in test [3] (Pseudomonas aeruginosa, pH 6.8, read-out: Minimum Inhibitory Concentration, PRD). Further, the MIC in test [3] (Pseudomonas aeruginosa, pH 8.2, read-out: Minimum Inhibitory Concentration, PRD) came out at 10 µg/mL (≈ 74.8 µM); in [6] (setting [11]), 50 µg/mL (≈ 374 µM); in test [6] (setting [12]), 10 µg/mL (≈ 74.8 µM).
For `N#CC#CSc1ccc(Cl)cc1` [D, 3-(4-chlorophenylthio)-2-propynenitrile], the MIC with Proteus vulgaris (Pv) (setting [7]) was under 10 µg/mL; in the test with Proteus vulgaris (Pv) (setting [8]), 50 µg/mL (≈ 258 µM); with Aspergillus niger (An) (malt yeast agar), under 1 µg/mL; in [1] (malt yeast agar) it was under 1 µg/mL; in the test on Trichoderma viride (Tv) (malt yeast agar), 2.5 µg/mL (≈ 12.9 µM); in test [3] (setting [9]) it was 25 µg/mL (≈ 129 µM). Moreover, the MIC in test [3] (setting [10]) was 100 µg/mL (≈ 516 µM); in test [6] (setting [11]) it was under 10 µg/mL; in [6] (setting [12]), 50 µg/mL (≈ 258 µM). Also, the MEC came out at 250 ppm in [2], 100 ppm in test [4] and 100 ppm in test [5].
